Test results as given in publication PMC12631912, “A Multifunctional Molecular Probe for Multimodal Imaging‐Guided Potent Photothermal/Photodynamic Therapy of Endometriosis” (Advanced Science, 2025).

Legend:
EESCs [1] = experiment: In vitro photothermal/photodynamic therapy, CCK-8 viability after laser; assay type: cell-based, human; settings: CCK-8, 2 h incubation, 808 nm, 1.0 W cm^−2, 5 min, concentration of the quoted value not stated (range 2.5 to 50 µg mL^−1 ICG), mean ± SD, n = 4
Protocol: Ishikawa cells and EESCs were seeded in a 96‐well plate at a density of 1 × 10^4 cells per well and allowed to adhere overnight. […] Following this incubation, the cells were irradiated with an 808 nm laser (1.0 W cm^−2, 5 min). The viability of cells was measured using the CCK‐8 assay.

EESCs [2] = experiment: Cellular internalization of probes by flow cytometry; assay type: cell-based, human; settings: EESC, in Figure 3g
Protocol: (§1) Furthermore, the cellular internalization of the probes was quantitatively evaluated using flow cytometry. […] After these incubation periods, the cells were washed three times with PBS, trypsinized, and collected. The harvested cells were then analyzed using an Attune NxT flow cytometer (Invitrogen, USA). The data obtained was analyzed utilizing NovoExpress 1.4.0 software (Agilent, USA).

endometriotic lesions = experiment: In vivo anti-EMS efficacy, autologous transplantation model; set-up: species or system Wistar female rats; settings: EMS rats, i.v. every 3 days, six times, 808 nm 1.0 W cm^−2 10 min 1 h post-administration; n = 4
Protocol: Mice were injected with different formulations via the tail vein every 3 days until euthanasia, with an ICG dose of 3 mg kg^−1. For groups receiving NIR laser irradiation, the procedure was conducted 1 h post‐administration with a power of 1.0 W cm^− ^2 for 10 min. Mouse body weights were recorded every 3 days, and xenograft growth was monitored using a vernier caliper. EMS rats (n = 4) underwent the same treatment strategy after 28 days of autotransplantation, with body weight changes monitored every 3 days. After 18 days of treatment, rats were euthanized for autograft size measurement. Nude mice were euthanized after 18 days for graft extraction, followed by H&E staining and TUNEL assay. Briefly, sections were deparaffinized, hydrated, stained with H&E, and visualized under an optical microscope.

EMS lesions = experiment: In vivo infrared thermography of EMS lesions; set-up: species or system BALB/c nude mice; settings: EMS nude mice, ICG 500 µg kg^−1 i.v., 1 h post-injection, 808 nm laser 1.0 W cm^−2, within 5 min; n = 3
Protocol: As shown in previous references,^[ [19] ^] to establish a xenograft EMS model in nude mice, female BALB/c nude mice (5‐6 weeks, 18‐20 g) served as recipients, and female Sprague–Dawley rats (7‐9 weeks, 200–240 g) with regular 4–5 days estrous cycles were selected as donors after a week of acclimatization. Prior to surgery, nude mice received daily intramuscular β‐estradiol 17‐pentanoate (0.25 µg g^−1) for 3 days. The EMS model was induced by subcutaneous transplantation of ≈40 mg of rat uterine fragments into nude mice. The uterine horns from euthanized donors were sterilely collected, bisected, minced, and suspended in DMEM/F12 medium before injection. Nude mice then received β‐estradiol 17‐pentanoate (0.25 µg g^−1) injections every 2 days, and endometriotic lesions reaching 100 mm^3 were used for subsequent experiments.
To investigate the photothermal heating efficacy at lesion sites in EMS mice, in vivo infrared thermography studies were conducted. […] Thermal responses were monitored in real‐time using a digital thermographic camera (Fluke Ti27, IR Fusion Technology, USA). Infrared thermal images were captured, and temperature measurements were recorded. The temporal correlation between temperature elevation and laser irradiation duration was analyzed using AnalyzIR software (4.0.0).

Ishikawa cells [3] = experiment: Intracellular ROS generation, DCFH-DA, flow cytometry; assay type: cell-based; settings: C ICG = 20 µg mL^−1, 4 h, + laser (808 nm, 1.0 W cm^−2, 5 min)
Protocol: (§2) DCFH‐DA was utilized to evaluate the intracellular ROS production induced by molecular probes under laser irradiation. Specifically, the cells (1 × 10^4 per well) were seeded onto confocal dishes and incubated overnight at 37 °C. […] Following this, the cells were carefully rinsed three times with fresh PBS. Subsequently, the cells were irradiated with an 808 nm laser (1.0 W cm^− ^2, 5 min). Intracellular ROS levels were then visualized and analyzed using a CLSM.
(§3) Additionally, a quantitative assessment of intracellular ROS production was performed using flow cytometry under the same conditions as the above experimental conditions. […] The cells were then trypsinized and harvested. After exposure to an 808 nm laser (1.0 W cm^− ^2, 5 min), the collected cells were analyzed on an Attune NxT flow cytometer (Invitrogen, USA). The resulting data was analyzed with NovoExpress 1.4.0 software (Agilent, USA).

EESCs [4] = experiment: as above; assay type: cell-based, human; settings: C ICG = 20 µg mL^−1, 4 h, + laser (808 nm, 1.0 W cm^−2, 5 min)
Protocol: as §2, §3

Ishikawa cells [5] = experiment: Cellular internalization of probes by flow cytometry; assay type: cell-based; settings: in Figure 3g
Protocol: as §1

[6] = In vivo fluorescence imaging, off-target effects and clearance in healthy mice; set-up: species or system BALB/c nude mice
EESCs [7] = experiment: CCK-8 cytotoxicity without laser irradiation; assay type: cell-based, human; settings: CCK-8, 24 h incubation, ICG concentration up to 300 µg mL^−1
Protocol: (§4) After 24 h, the medium was replaced with fresh medium containing 10% CCK‐8 reagent and incubated for an additional 2 h. The absorbance at 450 nm was measured using a Synergy 2 multimode microplate reader (BioTek, USA), with the wells without cells serving as blanks. All experiments were performed in triplicate.

Ishikawa cells [8] = experiment: CCK-8 cytotoxicity without laser irradiation; assay type: cell-based; settings: CCK-8, 24 h incubation, ICG concentration up to 300 µg mL^−1
Protocol: as §4

[9] = UV absorption and fluorescence emission spectra; assay type: physicochemical; settings: in PBS, cRGD-ILD C ICG = 10 µg mL^−1, ICG 5 µg/mL
Protocol: The ^1H NMR spectra were conducted utilizing a Varian Unity 400 MHz Spectrometer ([…]) in a variety of deuterated solvents. ESI‐MS were obtained with a Thermo Scientific LTQ XL mass spectrometer (Thermo, USA). UV absorption spectra were measured by a Unico UV‐2000 UV–vis Spectrophotometer (Shanghai, China). Photoluminescence excitation and emission spectra were recorded using an FSP920‐combined Time Resolved and Steady State Fluorescence Spectrometer (Edinburgh, UK), equipped with a 450‐W xenon lamp. Both the UV and fluorescence spectrophotometers were scanned within the wavelength range of 650–850 nm.

[10] = C ICG = 2.5 µg mL^−1, 1 h incubation
[11] = C ICG = 2.5 µg mL^−1, 4 h incubation

| Substance | cell viability after laser irradiation (EESCs [1]) | internalized probes by flow cytometry (EESCs [2]; [10]) | internalized probes by flow cytometry (EESCs [2]; [11]) | inhibition of lesion growth, probe + laser (endometriotic lesions) | localized (maximum) temperature at the EMS lesion (EMS lesions) | intracellular ROS, normalized fluorescence intensity (DCFH-DA) (Ishikawa cells [3]) | intracellular ROS, normalized fluorescence intensity (DCFH-DA) (EESCs [4]) | internalized probes by flow cytometry (Ishikawa cells [5]; [10]) | internalized probes by flow cytometry (Ishikawa cells [5]; [11]) | tissue distribution by serial in vivo fluorescence imaging ([6]; healthy BALB/c nude mice, ICG 1000 µg kg^−1 i.v.) | fluorescence signal as % of the 24 h level ([6]; healthy BALB/c nude mice, ICG 1000 µg kg^−1 i.v., within 7 days, n = 3) | ex vivo fluorescence of major organs ([6]; healthy nude mice, 10 days post-injection, heart, liver, spleen, lungs, kidneys) | cell viability without laser irradiation (EESCs [7]) | cell viability without laser irradiation (Ishikawa cells [8]) | fluorescence emission peak ([9]; λex = 755 nm) | absorption peak [9] |
| --- | --- | --- | --- | --- | --- | --- | --- | --- | --- | --- | --- | --- | --- | --- | --- | --- |
| ICG‐lys‐DTPA@Gd [ILD] | 55.35 ± 1.1% | 74.68% | 94.41% | superior efficacy in inhibiting lesion growth compared to the other groups | 34.5 °C | 88.54% | 93.85% | 61.98% | 93.22% | – | – | – | – | – | – | – |
| c(RGDyK)‐ICG‐lys‐DTPA@Gd (head to tail) [cRGD‐ILD, targeting theranostic probe integrating cRGD peptide, ICG fragment and DTPA@Gd complex] | 30.27 ± 2.02% | – | – | superior efficacy in inhibiting lesion growth compared to the other groups | – | 94.2% | 96.99% | – | – | no specific tissue distribution | ≈ 14.75% | minimal residual fluorescence | above 90% | above 90% | 764 nm | 755 nm |
